Test results reported in ChEMBL document CHEMBL1128378, “Use of medium-sized cycloalkyl rings to enhance secondary binding: discovery of a new class of human immunodeficiency virus (HIV) protease inhibitors” (J Med Chem, 1995).

Experiments:
[1] = tested on: HIV-1 protease (Human immunodeficiency virus 1); test: Binding affinity against HIV protease at 1 uM
[2] = tested on: HIV-1 protease (Human immunodeficiency virus 1); test: Binding affinity against HIV protease.; Not determined due to low enzyme inhibition
[3] = tested on: HIV-1 protease (Human immunodeficiency virus 1); test: Inhibition against HIV protease at 1 uM
[4] = tested on: HIV-1 protease (Human immunodeficiency virus 1); test: Binding affinity against HIV protease at 30 uM
[5] = tested on: HIV-1 protease (Human immunodeficiency virus 1); test: Binding affinity against HIV protease at 30 uM concentration
[6] = Maximum plasma concentration for the compound in suspension form (formulation) was determined in rats at peroral dose of 5 mg/kg; assay type: ADME, organism-based; parameters: dose 5 mg/kg, route oral; conditions: rat, po
[7] = Time taken for maximum plasma concentration for the compound in suspension form (formulation) was determined in rats at peroral dose of 5 mg/kg; assay type: ADME, organism-based; parameters: dose 5 mg/kg, route oral; conditions: rat, po
[8] = Time taken for maximum plasma concentration for the compound in solution form (formulation) was determined in rats at peroral dose of 5 mg/kg; assay type: ADME, organism-based; parameters: dose 5 mg/kg, route oral; conditions: rat, po
[9] = Maximum plasma concentration for the compound in solution form (formulation) was determined in rats at peroral dose of 5 mg/kg; assay type: ADME, organism-based; parameters: dose 5 mg/kg, route oral; conditions: rat, po

CC(c1ccccc1)c1c(O)c2c(oc1=O)CCCCCC2 (configuration not stated)
inhibition [1]: 10%

O=c1c2c(oc(O)c1C(c1ccccc1)C1CC1)CCC2 (configuration not stated)
Ki [2]: Low inhibition
inhibition [3]: 40%

O=c1c2c(oc(O)c1C(c1ccccc1)C1CC1)CCCCCCCC2 (configuration not stated)
inhibition [3]: 23%

O=c1c(CCc2ccccc2)c(O)oc2c1CCCCCC2
inhibition [4]: < 10%

O=c1c2c(oc(O)c1C(c1ccccc1)C1CC1)CCCCC2 (configuration not stated)
inhibition [3]: 70%

O=c1c2c(oc(O)c1C(c1ccccc1)C1CC1)CCCCCCC2 (configuration not stated)
inhibition [3]: 94%

O=c1c(CCCc2ccccc2)c(O)oc2c1CCCCCC2
inhibition [5]: 38%

O=c1c2c(oc(O)c1C(c1ccccc1)C1CC1)CCCCCCCCCC2 (configuration not stated)
Ki [2]: Low inhibition
inhibition [3]: < 10%

O=c1c2c(oc(O)c1C(c1ccccc1)C1CC1)CCCCCC2 (configuration not stated)
Cmax [6]: 30.3 µM
Tmax [7]: 6 h
inhibition [3]: 95%
Tmax [8]: 3.7 h
Cmax [9]: 40.8 µM

O=c1c2c(oc(O)c1C(c1ccccc1)C1CC1)CCCC2 (configuration not stated)
inhibition [3]: 62%

O=c1c(Cc2ccccc2)c(O)oc2c1CCCCCC2
inhibition [4]: < 10%
